{
  "source": "paper PMC6050274",
  "about": "“Buparlisib is a brain penetrable pan-PI3K inhibitor” (Scientific Reports, 2018)",
  "key": {"[1]": {"assay": "Plasma pharmacokinetics after i.v. and oral administration in male and female mice", "assay_type": "in vivo, FVB mice", "details": "for bioavailability: p.o. (5 mg/kg) vs i.v. (2 mg/kg), read-out: F (oral bioavailability); for Vd/F: read-out: Vz/F", "procedure": "Finally, we studied the pharmacokinetics of buparlisib in male and female mice and assessed the oral bioavailability in both genders by comparing the area-under-the-plasma concentration-time-curves (AUCs) following intravenous and oral administration. Both after oral and i.v. administration there was no difference in pharmacokinetics between male and female mice (Fig. 3C, Table 1).\nThe pharmacokinetics of buparlisib were analysed in WT, Abcg2^−/−, Abcb1a/b^−/− and Abcb1a/b; Abcg2^−/− FVB mice. All knockout mice strains have been developed within our institute[41]–[43]. For i.v. administration, buparlisib was dissolved in DMSO and injected at a dose of 2 mg/kg. For oral administration, buparlisib was formulated in DMSO:Cremophor EL:water (1:1:8 v/v/v) and administered at 1, 2 or 5 mg/kg as indicated. Tail vein bleeding was used to collect blood at intermediate time points, whereas at the last time point blood was drawn by cardiac puncture and various tissue were collected. Plasma was obtained from whole blood by centrifugation (5 min, 5,000 rpm, 4 °C). After weighing, tissues were homogenized using a FastPrep®-24 (MP-Biomedicals, NY) in 1% (w/v) bovine serum albumin in water. Buparlisib was extracted from plasma and tissue homogenate by liquid-liquid extraction with ethyl acetate using AZD8055 as an internal standard.\nBuparlisib was measured in samples from in vitro transport assays and in vivo pharmacokinetic studies using an LC-MS/MS system comprised of an UltiMate 3000 LC Systems (Dionex, Sunnyvale, CA) and an API 4000 mass spectrometer (Sciex, Framingham, MA). Samples were run through a Securityguard C18 pre-column (Phenomenex, Utrecht, The Netherlands) prior to separation on a ZORBAX Extend-C18 column (Agilent, Santa Clara, CA). Elution was done using a in a 5 minute gradient from 20% to 95% B (mobile phase A was 0.1% HCOOH in water (v/v) and mobile phase B was methanol). 95% B was maintained for 3 min followed by re-equilibration at 20% B. Multiple reaction monitoring was performed at 411.3/367.2 (buparlisib) and 418.2/138.4 (AZD8055). Analyst® 1.6.2 software (AB Sciex; Foster City, CA) was used for system control and data analysis.\nAs described in detail before, CETA results were analysed with the General linear model repeated measures procedure of SPSS (v22; SPSS Inc, Chicago, IL)[25]. PK solver was used to determine pharmacokinetic parameters. The standard error of the oral bioavailability was calculated using the formula below: SEF=F(SEAUCp.o./AUCp.o.)^2+(SEAUCi.v./AUCi.v.)^2 Buparlisib concentrations in WT and transporter knockout mice in vivo were compared using one-way analysis of variance followed by post hoc Bonferroni tests. Statistical differences between the buparlisib PK parameters in male and female mice were calculated as Bonferroni corrected p-values using multiple Student’s t-tests. Differences were considered statistically significant when p < 0.05."}, "PI3K": {"system": "PI3K", "assay": "Intracranial target inhibition, immunoblotting of brain lysates", "assay_type": "in vivo, FVB mice", "procedure": "Figure 3 Buparlisib has excellent intracranial target engagement and oral bioavailability. (A) Buparlisib was orally administered to wildtype mice at a dose of 1 mg/kg, 2 mg/kg or 5 mg/kg. One hour after injection, blood and tissues were collected for LC-MS/MS analysis. Buparlisib plasma and brain levels increase dose-dependently, yielding similar and excellent brain-plasma ratios at all dose levels that were tested. (B) Immunoblotting of brain tissue lysates from (A). […] (C) Plasma-time curves of male and female wildtype mice following intravenous (2 mg/kg) or oral (5 mg/kg) administration. […] The oral bioavailability of buparlisib is excellent, since oral and intravenous administration yielded similar dose-adjusted AUCs (see Table 1). All data are represented as mean ± SD (n = 4).\nNext, we studied the intracranial pharmacodynamics of buparlisib in WT FVB mice as measured by target inhibition.\nMouse brains were homogenized in RIPA buffer supplemented with sodium fluoride (2 mM), sodium orthovanadate (1 mM), sodium pyrophosphate (1 mM), β-glycerophosphate (2.5 mM), PMSF (1 mM), DTT (1 mM) and protein inhibitor cocktail (Roche; Basel, Switzerland). The primary antibodies that were used in this study are phospho-Akt^S473 (1:1000; D9E, #4060; Cell Signaling Technology; Danvers, MA), total Akt (1:1000; #9272; Cell Signaling Technology), phospho-Erk1^T202/204/Erk2^T183/Y185 (1:1000; sc-16982; Santa Cruz Biotechnology, Dallas, TX), total Erk1/2 (1:1000; C16, sc-93; Santa Cruz Biotechnology) and β–tubulin (1:1000; T3952; Sigma-Aldrich, St. Louis, MO). Goat-anti-rabbit-HRP (1:2000; DAKO, Santa Clara, CA) was used a secondary antibody."}, "[2]": {"details": "FVB, mouse, plasma, iv, i.v. (2 mg/kg), female"}, "[3]": {"details": "FVB, mouse, plasma, iv, i.v. (2 mg/kg), male"}, "[4]": {"details": "FVB, mouse, plasma, po, p.o. (5 mg/kg), female"}, "[5]": {"details": "FVB, mouse, plasma, po, p.o. (5 mg/kg), male"}},
  "note": "Several values for one entry are separate records, joined by “and”; a condition that tells them apart may be missing. Equal values may be shown once. Read-outs that look alike come from different tables or passages of the source.",
  "data": [
    {"smiles": "Nc1cc(C(F)(F)F)c(-c2cc(N3CCOCC3)nc(N3CCOCC3)n2)cn1", "note": "[buparlisib]", "values": [
      {"measurement": "Cmax", "setting": "[1]; [2]", "result": "1.9 ± 0.41", "unit": "µg/mL"},
      {"measurement": "half-life", "setting": "[1]; [2]", "result": "1.6 ± 0.07", "unit": "h"},
      {"measurement": "Vd", "setting": "[1]; FVB, mouse, plasma, iv, i.v. (2 mg/kg), female, read-out: Vz", "result": "0.86 ± 0.14", "unit": "L/kg"},
      {"measurement": "Cmax", "setting": "[1]; [3]", "result": "2.1 ± 0.19", "unit": "µg/mL"},
      {"measurement": "half-life", "setting": "[1]; [3]", "result": "1.67 ± 0.07", "unit": "h"},
      {"measurement": "Vd", "setting": "[1]; FVB, mouse, plasma, iv, i.v. (2 mg/kg), male, read-out: Vz", "result": "0.8 ± 0.23", "unit": "L/kg"},
      {"measurement": "concentration at 24 h", "setting": "[1]; FVB, mouse, plasma, oral, mice, 5 mg/kg, read-out: plasma level after 24 h", "result": "< 1 ng/mL and < 2.4 nM"},
      {"measurement": "bioavailability", "setting": "[1]; FVB, mouse, plasma, oral, female", "result": "112 ± 21.1", "unit": "%"},
      {"measurement": "bioavailability", "setting": "[1]; FVB, mouse, plasma, oral, male", "result": "103 ± 26.1", "unit": "%"},
      {"measurement": "CL/F", "setting": "[1]; [4]", "result": 0.32, "unit": "L/h/kg"},
      {"measurement": "Cmax", "setting": "[1]; [4]", "result": "3 ± 0.49", "unit": "µg/mL"},
      {"measurement": "Tmax", "setting": "[1]; [4]", "result": "0.67 ± 0.39", "unit": "h"},
      {"measurement": "half-life", "setting": "[1]; [4]", "result": "1.4 ± 0.04", "unit": "h"},
      {"measurement": "Vd/F", "setting": "[1]; [4]", "result": "0.63 ± 0.08", "unit": "L/kg"},
      {"measurement": "CL/F", "setting": "[1]; [5]", "result": 0.31, "unit": "L/h/kg"},
      {"measurement": "Cmax", "setting": "[1]; [5]", "result": "3.3 ± 1.3", "unit": "µg/mL"},
      {"measurement": "Tmax", "setting": "[1]; [5]", "result": 1, "unit": "h"},
      {"measurement": "half-life", "setting": "[1]; [5]", "result": "1.44 ± 0.06", "unit": "h"},
      {"measurement": "Vd/F", "setting": "[1]; [5]", "result": "0.64 ± 0.03", "unit": "L/kg"},
      {"measurement": "oral bioavailability", "setting": "[1]; both genders, dose-corrected AUC oral vs i.v.", "result": "complete"},
      {"measurement": "Vd", "setting": "[1]; both sexes, FVB, mouse, plasma, intravenous, 2 mg/kg, mice, read-out: volume of distribution", "result": "< 1", "unit": "L/kg"},
      {"measurement": "CL", "setting": "[1]; i.v. (2 mg/kg), female", "result": "0.37 ± 0.06", "unit": "L/kg^.h"},
      {"measurement": "Plasma AUC 0-∞", "setting": "[1]; i.v. (2 mg/kg), female", "result": "5600 ± 860", "unit": "ng/ml^.h"},
      {"measurement": "CL", "setting": "[1]; i.v. (2 mg/kg), male", "result": "0.33 ± 0.09", "unit": "L/kg^.h"},
      {"measurement": "Plasma AUC 0-∞", "setting": "[1]; i.v. (2 mg/kg), male", "result": "6300 ± 1500", "unit": "ng/ml^.h"},
      {"measurement": "difference in pharmacokinetics between male and female mice", "setting": "[1]; oral and i.v. administration", "result": "no difference"},
      {"measurement": "Plasma AUC 0-∞", "setting": "[1]; p.o. (5 mg/kg), female", "result": "16000 ± 1700", "unit": "ng/ml^.h"},
      {"measurement": "Plasma AUC 0-∞", "setting": "[1]; p.o. (5 mg/kg), male", "result": "16000 ± 1200", "unit": "ng/ml^.h"},
      {"measurement": "phosphorylation of Akt S473 in the brain", "setting": "PI3K; oral 5 mg/kg, wildtype mice", "result": "efficiently inhibited"},
      {"measurement": "phosphorylation of AKT in brain lysates", "setting": "PI3K; oral 1, 2, 5 mg/kg, WT FVB mice", "result": "dose-dependently decreased"},
      {"measurement": "signalling through ERK in brain lysates", "setting": "PI3K; oral, WT FVB mice", "result": "without affecting"}
    ]}
  ]
}
